From patent publication US10905769B2, “Peptide and peptide mimetic binding antagonists of polo-like kinase 1 polo box domain and methods of use” (priority 2015, dated 2021)
Where two headings read alike, the source gives them in different places. Peptide text beside a SMILES is read from it.

Key:
full-length Plk1 = target: T1, full-length Plk1 (Homo sapiens, UniProt P53350); assay: ELISA inhibition assay: full-length Plk1 binding to immobilized pThr-containing peptide; details: FIG. 5A/5B
T1 construct: Plasmids encoding full length Plk1 (Plasmid #41160); host or cells: HEK293T, crude cytosolic lysate
T1 sequence (P53350 whole entry): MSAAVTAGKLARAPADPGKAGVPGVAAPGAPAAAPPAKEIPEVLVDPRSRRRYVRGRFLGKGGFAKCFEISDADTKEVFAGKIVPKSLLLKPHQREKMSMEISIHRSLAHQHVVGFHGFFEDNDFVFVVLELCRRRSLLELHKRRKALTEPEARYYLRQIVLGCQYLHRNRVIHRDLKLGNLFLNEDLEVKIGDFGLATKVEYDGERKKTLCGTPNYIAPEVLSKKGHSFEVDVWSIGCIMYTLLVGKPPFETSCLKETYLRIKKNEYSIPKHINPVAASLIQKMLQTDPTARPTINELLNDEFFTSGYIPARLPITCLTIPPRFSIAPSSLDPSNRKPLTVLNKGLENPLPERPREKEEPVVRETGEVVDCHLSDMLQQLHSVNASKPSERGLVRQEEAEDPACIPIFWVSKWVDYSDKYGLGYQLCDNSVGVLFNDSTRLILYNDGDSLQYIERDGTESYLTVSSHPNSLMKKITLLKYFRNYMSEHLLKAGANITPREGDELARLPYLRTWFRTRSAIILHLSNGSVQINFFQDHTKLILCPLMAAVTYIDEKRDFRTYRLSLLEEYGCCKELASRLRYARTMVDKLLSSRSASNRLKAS

Plk1 PBD [1] = target: T2, Plk1 PBD (Homo sapiens, UniProt P53350); format: binding; parameters: host or cells: HEK293T, crude cytosolic lysate; details: average ± SEM from five independent experiments
Target sequence in this assay (P53350 whole entry): as above
Description: All assay steps were performed at room temperature with gentle shaking. A biotinylated phosphopeptide (sequence: Biotin-Ahx-PMQS(pT)PLN-NH2) (46-48) was diluted with PBS 7.4 to 1 μM (from a 10 mM dimethylsulfoxide (DMSO) stock solution) and loaded onto the wells of a 96-well Neutravidin-coated plate (Pierce Biotechnology) at 100 μL per well for 1 hour. The wells were washed once with 150 μL PBST (PBS 7.4+0.05% Tween-20), and then 100 μL of 1% bovine serum albumin (BSA) in PBS 7.4 (blocking buffer) were added for 1 hour. The cytosolic lysate containing myc-tagged protein was diluted to 300 μg/mL in PBS 7.4 containing protease/phosphatase inhibitors (Pierce Biotechnology), mixed with competitive inhibitor (from a 10× stock in 5% DMSO/PBS), and allowed to pre-incubate for 1 h (100 μL per well in a 96-well plate, 30 μg total protein). […] The wells were then washed 5× with PBST (150 μL) and incubated with Turbo TMB-ELISA solution (Pierce Biotechnology) until the desired absorbance is reached (5-10 minutes). […] H2SO4 and the absorbance was measured at 450 nm using a BioTek Synergy 2 96-well plate reader.
Absorbance was plotted versus concentration (log M) and fit to a non-linear regression using GraphPad Prism 6 software (model: log(inhibitor) vs. response—Variable slope (four parameters)) to provide IC50 values. […]

Plk1 PBD [2] = target: T2, Plk1 PBD; assay: biochemical; format: binding; parameters: and Plk1 PBD (Plasmid #41162) (45) linked to a 3× myc tagged; host or cells: HEK293T, crude cytosolic lysate; details: Cell Lysate ELISA IC50 (μM)
Description: HEK293T cells were plated on 10 cm culture dishes at 4M cells per plate. Following 24 h, the cells were transfected with 10 μg of plasmid DNA using 20 μL of TurboFect transfection reagent (Pierce Biotechnology) according to the manufacturer's instructions. Following 24 h, the cells were harvested using trypsin, washed with phosphate-buffered saline (PBS) 7.4 buffer, and lysed in lysis buffer (PBS 7.4+0.5% NP-40+protease/phosphatase inhibitor cocktail (Pierce Biotechnology)) using 3 freeze/thaw cycles. The lysed suspension was centrifuged at 10,000×G for 10 minutes to pellet membrane proteins and nuclei. The supernatant was removed to provide a crude cytosolic lysate containing expressed myc-tagged Plk1 or Plk1 PBD. The total protein concetration was determined using a Bicinchoninic Acid (BCA) assay kit (Pierce Biotechnology).
All assay steps were performed at room temperature with gentle shaking. A biotinylated phosphopeptide (sequence: Biotin-Ahx-PMQS(pT)PLN-NH2) (46-48) was diluted with PBS 7.4 to 1 μM (from a 10 mM dimethylsulfoxide (DMSO) stock solution) and loaded onto the wells of a 96-well Neutravidin-coated plate (Pierce Biotechnology) at 100 μL per well for 1 hour. The wells were washed once with 150 μL PBST (PBS 7.4+0.05% Tween-20), and then 100 μL of 1% bovine serum albumin (BSA) in PBS 7.4 (blocking buffer) were added for 1 hour. The cytosolic lysate containing myc-tagged protein was diluted to 300 μg/mL in PBS 7.4 containing protease/phosphatase inhibitors (Pierce Biotechnology), mixed with competitive inhibitor (from a 10× stock in 5% DMSO/PBS), and allowed to pre-incubate for 1 h (100 μL per well in a 96-well plate, 30 μg total protein). The blocked ELISA plate was washed 2× with PBST (150 μL) and the pre-incubated lysates were added to the plate to incubate for 1 hour. The wells were washed 4× with PBST (150 μL), then probed with anti-myc primary antibody (1:1500 dilution for assays that include macrocyclic peptidomimetic ligand of the present disclosure and 1:3000 dilution for all other assays, mouse monoclonal, Pierce Biotechnology) for 1 hour. […] The wells were then washed 5× with PBST (150 μL) and incubated with Turbo TMB-ELISA solution (Pierce Biotechnology) until the desired absorbance is reached (5-10 minutes). The reaction was quenched by the addition of 2M aq. H2SO4 and the absorbance was measured at 450 nm using a BioTek Synergy 2 96-well plate reader.
Compounds were evaluated for inhibition of Plk1 PBD binding to a pThrcontaining peptide by ELISA in cell lysates and by inhibition of cell proliferation in HeLa cells. Pmab=2(S)-amino-3(R)-methyl-4-phosphonobutanoic acid.
Target sequence in this assay (P53350 326-603 limits assumed): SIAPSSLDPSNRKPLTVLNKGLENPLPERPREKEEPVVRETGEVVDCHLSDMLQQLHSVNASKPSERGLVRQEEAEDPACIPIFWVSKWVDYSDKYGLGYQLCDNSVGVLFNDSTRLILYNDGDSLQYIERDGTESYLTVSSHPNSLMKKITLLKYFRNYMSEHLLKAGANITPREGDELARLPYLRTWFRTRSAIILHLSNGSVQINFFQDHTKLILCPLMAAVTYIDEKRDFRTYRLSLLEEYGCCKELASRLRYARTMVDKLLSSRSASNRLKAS

[3] = Table 7, compounds 2 and 3 tested simultaneously for direct comparison

SMILES	inhibitory potency in competitive ELISA versus parent peptide 1 (4j) (full-length Plk1)	IC50 (Plk1 PBD [2]; [3])	further results
CC(=O)N1CCC[C@H]1C(=O)N[C@@H](CC(C)C)C(=O)N[C@H]1C[C@H](CCCCCCCCc2ccccc2)C(=O)NCCCC[C@H](C(N)=O)NC(=O)[C@H]([C@@H](C)OP=O)NC(=O)[C@H](CO)NC1=O (some centres unmarked) [15d, cPLE*SpTk] (HELM PEPTIDE1{[ac].P.L.[O=C([C@H](C[C@H](CCCCCCCCc1ccccc1)C(=O)[*:3])N[*:1])[*:2]].S.[C[C@@H](OP=O)[C@H](N[*:1])C(=O)[*:2]].[dK].[am]}$PEPTIDE1,PEPTIDE1,4:R3-7:R3$$$V2.0)	dramatic reductions in potency	–	–
CC(=O)N1CCC[C@H]1C(=O)N[C@@H](CC(C)C)C(=O)N[C@@H](Cc1cncn1CCCCCCCCc1ccccc1)C(=O)N[C@@H](CO)C(=O)N[C@H](C(N)=O)[C@@H](CCc1ccccc1)CP(=O)(O)O [18e] (HELM PEPTIDE1{[ac].P.L.[O=C([C@H](Cc1cncn1CCCCCCCCc1ccccc1)N[*:1])[*:2]].S.[O=C([C@@H](N[*:1])[C@@H](CCc1ccccc1)CP(=O)(O)O)[*:2]].[am]}$$$$V2.0; N-terminus assumed)	–	–	IC50 (Plk1 PBD [1]): 70 ± 20 nM
CC(=O)N1CCC[C@H]1C(=O)N[C@@H](CC(C)C)C(=O)N[C@H]1C[C@H](CCCCCCCCc2ccccc2)C(=O)NCCC[C@@H](C(N)=O)NC(=O)[C@H]([C@@H](C)OP=O)NC(=O)[C@H](CO)NC1=O (some centres unmarked) [15a, cPLE*SpTO] (HELM PEPTIDE1{[ac].P.L.[O=C([C@H](C[C@H](CCCCCCCCc1ccccc1)C(=O)[*:3])N[*:1])[*:2]].S.[C[C@@H](OP=O)[C@H](N[*:1])C(=O)[*:2]].[Orn].[am]}$PEPTIDE1,PEPTIDE1,4:R3-7:R3$$$V2.0)	improved potencies versus the parent peptide 1	–	–
CC(=O)N1CCCC1C(=O)N[C@@H](CC(C)C)C(=O)N[C@@H](Cc1cnc[nH]1)C(=O)N[C@@H](CO)C(=O)NC(C(N)=O)[C@@H](Cc1ccccc1)CP(=O)(O)O (some centres unmarked) [compound 15] (HELM PEPTIDE1{[ac].[O=C(C1CCCN1[*:1])[*:2]].L.H.S.[O=C(C(N[*:1])[C@@H](Cc1ccccc1)CP(=O)(O)O)[*:2]].[am]}$$$$V2.0)	–	50 µM	–
CC(=O)N1CCCC1C(=O)N[C@@H](CC(C)C)C(=O)N[C@@H](Cc1cncn1CCc1ccccc1)C(=O)N[C@@H](CO)C(=O)NC(C(N)=O)C(C)CP(=O)(O)O (some centres unmarked) [compound 4]	–	–	IC50 (Plk1 PBD [2]; Table 6): 0.02 µM
CC(=O)N1CCC[C@H]1C(=O)N[C@@H](CC(C)C)C(=O)N[C@@H](Cc1cncn1CCCCCCCCc1ccccc1)C(=O)N[C@@H](CO)C(=O)N[C@H](C(N)=O)[C@@H](Cc1ccccc1)CP(=O)(O)O [18d] (HELM PEPTIDE1{[ac].P.L.[O=C([C@H](Cc1cncn1CCCCCCCCc1ccccc1)N[*:1])[*:2]].S.[O=C([C@@H](N[*:1])[C@@H](Cc1ccccc1)CP(=O)(O)O)[*:2]].[am]}$$$$V2.0; N-terminus assumed)	–	–	IC50 (Plk1 PBD [1]): 300 ± 80 nM
CC(=O)N1CCC[C@H]1C(=O)N[C@@H](CC(C)C)C(=O)N[C@H]1C[C@H](CCCCCCCCc2ccccc2)C(=O)NCCCC[C@@H](C(N)=O)NC(=O)[C@H]([C@@H](C)OP=O)NC(=O)[C@H](CO)NC1=O (some centres unmarked) [15c, cPLE*SpTK] (HELM PEPTIDE1{[ac].P.L.[O=C([C@H](C[C@H](CCCCCCCCc1ccccc1)C(=O)[*:3])N[*:1])[*:2]].S.[C[C@@H](OP=O)[C@H](N[*:1])C(=O)[*:2]].K.[am]}$PEPTIDE1,PEPTIDE1,4:R3-7:R3$$$V2.0)	improved potencies versus the parent peptide 1	–	–
CC(=O)N1CCCC1C(=O)N[C@@H](CC(C)C)C(=O)N[C@@H](Cc1cncn1CCc1ccccc1)C(=O)N[C@@H](CO)C(=O)NC(C(N)=O)[C@@H](Cc1ccccc1)CP(=O)(O)O (some centres unmarked) [compound 16]	–	0.035 µM	–
CC(=O)N1CCCC1C(=O)N[C@@H](CC(C)C)C(=O)N[C@@H](Cc1cncn1CCc1ccccc1)C(=O)N[C@@H](CO)C(=O)NC(C(N)=O)C(C)OP(=O)(O)O (stereo in doubt) [compound 3]	–	0.023 µM	IC50 (Plk1 PBD [2]; Table 6): 0.017 µM
CC(=O)N1CCC[C@H]1C(=O)N[C@@H](CC(C)C)C(=O)N[C@H]1C[C@H](CCCCCCCCc2ccccc2)C(=O)NCCC[C@@H](C(N)=O)NC(=O)[C@H]([C@@H](C)OP=O)NC(=O)[C@H](CO)NC1=O (some centres unmarked) [15b, cPLE*SpTo] (HELM PEPTIDE1{[ac].P.L.[O=C([C@H](C[C@H](CCCCCCCCc1ccccc1)C(=O)[*:3])N[*:1])[*:2]].S.[C[C@@H](OP=O)[C@H](N[*:1])C(=O)[*:2]].[Orn].[am]}$PEPTIDE1,PEPTIDE1,4:R3-7:R3$$$V2.0)	dramatic reductions in potency	–	–
